Measurements taken from patent US12692301B2, “Methods of improving retina-associated disease outcome using CCR3-inhibitors” (ALKAHEST INC., priority 2020, dated 2026).
Read-outs that look alike come from different tables or passages of the source.

Experiments:
[1] = biological target: T1, CCR3 (Homo sapiens, UniProt P51677); conditions: from the cited reference; read-out: IC50 (binding); cited from earlier work
T1 sequence (P51677 1-355): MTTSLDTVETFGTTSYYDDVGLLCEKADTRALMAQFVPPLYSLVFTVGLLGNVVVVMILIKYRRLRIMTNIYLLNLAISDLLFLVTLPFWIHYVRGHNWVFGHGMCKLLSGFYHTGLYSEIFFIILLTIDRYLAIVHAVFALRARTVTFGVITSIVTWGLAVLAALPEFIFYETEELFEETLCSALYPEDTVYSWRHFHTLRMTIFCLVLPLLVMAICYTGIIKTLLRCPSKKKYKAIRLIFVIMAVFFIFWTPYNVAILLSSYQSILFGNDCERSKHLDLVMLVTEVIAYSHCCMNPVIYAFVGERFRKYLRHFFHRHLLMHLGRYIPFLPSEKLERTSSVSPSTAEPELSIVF

[2] = biological target: T1, CCR3; conditions: from the cited reference; read-out: IC50 (chemotaxis); cited from earlier work
[3] = biological target: T1, CCR3; conditions: from the cited reference; read-out: IC50 (Calcium influx); cited from earlier work
[4] = biological target: T1, CCR3; conditions: assay not stated; from the cited reference; cited from earlier work
[5] = system: human eotaxin-1 induced eosinophil shape change; conditions: human whole blood; read-out: IC50, antagonism of human eotaxin-1 induced eosinophil shape change; cited from earlier work
[6] = system: refractory wet Age-Related Macular Degeneration (wAMD); assay: clinical case, refractory subject eyes: oral Compound 1 followed by IVT anti-VEGF; format: in vivo, human; conditions: Compound 1 regimen followed by IVT anti-VEGF, summary
Method: Subjects with refractory wet Age-Related Macular Degeneration (wAMD) were administered 400 mg of Compound 1 CCR antagonist orally twice per day (BID) for a total dose of 800 mg per day. The treatment regimen of Compound 1 lasted 6-weeks. Refractory subjects for this 6-week regimen were described as having persistent subretinal fluid, intraretinal fluid, and absence of improvement in visual acuity after at least 3 consecutive (approximately 4-6 weeks apart) IVT anti-VEGF injections. After the end of a clinical trial consisting of 6-weeks of Compound 1 CCR antagonist treatment, and four weeks of clinical trial follow up with no additional treatment, a subject with heavily pre-treated bilateral disease entered back into normal treatment with their physician and was treated or re-treated with α-VEGF agents per physician judgment guided by standard criteria such as new CNV activity on OCT/angiography OCT (angio-OCT or aOCT) or foveal subretinal fluid (SRF)/intra-retinal fluid (IRF) or PED. Different α-VEGF agents (described in FIGS. 4-5, 9-10, 14-15, 19-21 and Tables D and H) were administered by intra-vitreal injection. […] The central retinal thickness (CRT) was measured automatically (software version 9.6). […] Subretinal and intraretinal fluid presence was assessed manually. […] CNV activity signs such as neovascular vasculature seen on OCT angiography were monitored. […]

[7] = system: choroidal neovascularization (CNV) secondary to wAMD; assay: clinical cases, naïve subject eyes: oral Compound 1 followed by IVT anti-VEGF; format: in vivo, human
Method: Newly diagnosed subjects with choroidal neovascularization (CNV) secondary to wAMD were administered 400 mg of Compound 1 CCR antagonist orally twice per day (BID) for a total dose of 800 mg per day. The clinical trial treatment regimen included 6 weeks of Compound 1 followed by 4 weeks of safety follow up (weeks 7 and 8 as in office visits and follow up by phone at week 10) with no additional Compound 1 treatment. Subject treatment visits took place once per week where mean changes in BCVA as measured by ETDRS were noted, slit lamp and SD-OCT performed, and intraocular pressure taken. Subjects then returned to routine treatment with their physician post clinical trial and were treated or re-treated with α-VEGF agents per physician judgment guided by standard criteria such as new CNV activity on OCT/angio-OCT (aOCT) or increased foveal subretinal fluid (SRF)/intra-retinal fluid (IRF). Different α-VEGF agents (described in FIGS. 1-3, 6-8, 11-13, and 16-18, 21 and Tables A-C and E-G) were administered by intra-vitreal injection. For aflibercept, 2 mg in 0.05 mL was given per single intravitreal injection. For bevacizumab, 1.25 mg in 0.05 mL was given per single intravitreal injection. For ranibizumab, 0.5 mg in 0.05 mL was given per single intravitreal injection. All OCT tests were performed using REVO NX (Optopol Technology, Poland). A 3-dimensional (3D) scanning protocol covering a 7×7 mm area was used (1024 A-scans×64 tomograms). The central retinal thickness (CRT) was measured automatically (software version 9.6). The detection of the fovea and the accuracy of layers segmentation was checked by the operator. If necessary, the fovea location and the outer retinal boundaries were corrected manually by moving the pointer to the desired position. In such cases, the central macular thickness value was recalculated. Subretinal and intraretinal fluid presence was assessed manually. SRF was defined as a hyporeflective space between retinal pigment epithelium and the sensory retina, whereas IRF as ovoid or round spaces within the retina, with a low reflectivity content. SRF and IRF was distinguished from the outer retinal tubulations (ORTs) and degenerative IRF. The latter were not recognized as a CNV activity sign. CNV activity signs such as neovascular vasculature seen on OCT angiography were monitored. Additionally, lipid exudates and enlargement of RPE elevation were noted.

[8] = system: neovascular (wet) AMD; conditions: cited from earlier work; for patients with persistent presence of fluid at the retina (OCT or angiography): IVT, after two years of monthly injections
[9] = Patient Case 3, after 6 weeks oral Compound 1, once ranibizumab, subsequently bevacizumab

## CCCN1CCC(Cc2ccc(F)cc2)C[C@@H]1CCCNC(=O)Nc1cccc(C(C)=O)c1 (stereo partly drawn)
[1]
  IC50: 2 nM
[2]
  IC50: 19 nM
[3]
  IC50: 26 nM

## CC(=O)Nc1ccc2nc(SCC(=O)NC3CCN(Cc4ccc(Cl)c(Cl)c4)CC3)sc2c1
[4]
  IC50: 1.5 nM

## O=C(Nc1ccccc1[N+](=O)[O-])[C@@H]1CCCN1CNC1CC2CCC(C1)N2Cc1ccc2cc(F)ccc2c1 (stereo partly drawn)
[4]
  IC50: 4.9 nM

## C[C@@H](NC(=O)Nc1cccc(-c2nnnn2C)c1)C(O)CN1CCC[C@@H](Cc2ccc(F)cc2)C1 (stereo partly drawn)
[1]
  IC50: 0.3 nM
[2]
  IC50: 0.038 nM

## O=C(NCC1CCCN(C2CCN(Cc3ccc(Cl)c(Cl)c3)CC2)C1)c1cccc2cccnc12 (stereo not drawn)
[4]
  IC50: 30 nM

## Cc1ccc(C(=O)N[C@@H](Cc2ccc(Cl)cc2)C(=O)N[C@@H](C)C(=O)Nc2ccc(Cl)cc2)c(C)c1
[4]
  IC50: 3.5 nM

## Cc1ccc[n+]([O-])c1C(=O)N1CCC(=CC(=O)N[C@@H]2CCN(Cc3ccc4cc(F)ccc4c3)C2)CC1
[1]
  IC50: 3 nM
[2]
  IC50: 19.9 nM
[3]
  IC50: 5.4 nM

## Cc1cc(C(=O)N(C)C)cc(NC(=O)[C@H]2CCC(=O)N2C2CCN(Cc3ccc(Cl)c(C)c3)CC2)n1 [Compound 1]
[5]
  IC50: 42.5 ± 43.5 nM
[6]
  CRT: stabilized
  Central retinal pigmental epithelium detachment height: reduced

## CC1=C(CC(CCc2ccc([N+](=O)[O-])cc2)C2CCN(C(=O)c3ccncc3)CC2)C(=O)N(c2ccc(F)cc2)C1C (stereo not drawn)
[4]
  IC50: 12 nM

## bevacizumab
[7]; Patient Case 1, after 6 weeks oral Compound 1
  average anti-VEGF doses required per year: 0.667 dose per year
[7]; [9]
  average anti-VEGF doses required per year: 1.23 dose per year
[8]
  patients with persistent presence of fluid at the retina (OCT or angiography): 67.4%

## NC(=O)c1ccc(CNC(=O)NCC2CN(Cc3ccc(Cl)c(Cl)c3)CCO2)cc1 (stereo not drawn)
[4]
  IC50: 10 nM

## Cc1ccc(C(=O)N2CCC(=CC(=O)N[C@@H]3CCN(Cc4ccc5cc(F)ccc5c4)C3)CC2)nn1
[3]
  IC50: 6.2 nM

## CN1CCC(c2ccccc2)[C@@H]1COc1cccnc1 (stereo partly drawn)
[4]
  IC50: 195 nM

## aflibercept
[7]; Patient Case 2, after 6 weeks oral Compound 1
  average anti-VEGF doses required per year: 2.36 doses per year

B1: ranibizumab (antibody, chains of the INN, looked up, V domains shown)
VH: EVQLVESGGGLVQPGGSLRLSCAASGYDFTHYGMNWVRQAPGKGLEWVGWINTYTGEPTYAADFKRRFTFSLDTSKSTAYLQMNSLRAEDTAVYYCAKYPYYYGTSHWYFDVWGQGTLVTVSS
VL: DIQLTQSPSSLSASVGDRVTITCSASQDISNYLNWYQQKPGKAPKVLIYFTSSLHSGVPSRFSGSGSGTDFTLTISSLQPEDFATYYCQQYSTVPWTFGQGTKVEIK
modifications: Fab
notes: anti-VEGF antibody, intravitreal injection
[7]; [9]
  average anti-VEGF doses required per year: 1.23 dose per year
[8]
  patients with persistent presence of fluid at the retina (OCT or angiography): 51.5%
[8]; nine months after 3 initial monthly doses, FDA label
  additional average letter gain with monthly dosing versus less frequent dosing: 1-2 letter
[8]; over the next 9 months after 4 monthly doses, FDA label
  loss of visual acuity benefit, dosing every 3 months compared with continued monthly dosing: ~5 letter
